Source: the supplement of paper PMC13380429

Experiments:
Conditions in all cases: 72 h
Calu-3 [1] = test: drug sensitivity score (DSS) for viability; higher = more toxic; extreme values may be limits of the assay
U2OS [2] = test: as above
Caco-2 [3] = test: as above
HepG2 [4] = test: as above
Vero E6 [5] = test: as above
Calu-3 [6] = test: relative viability EC50 (midpoint between 100% and the lowest measured viability); higher = less toxic
U2OS [7] = test: as above
Caco-2 [8] = test: as above
HepG2 [9] = test: as above
Vero E6 [10] = test: as above
Calu-3 [11] = test: cell viability relative to DMSO; higher = less toxic
U2OS [12] = test: as above
Caco-2 [13] = test: as above
HepG2 [14] = test: as above
Vero E6 [15] = test: as above

Row | Structure (SMILES) | drug sensitivity score (Calu-3 [1]) | drug sensitivity score (U2OS [2]) | drug sensitivity score (Caco-2 [3]) | drug sensitivity score (HepG2 [4]) | drug sensitivity score (Vero E6 [5]) | relative viability EC50 (Calu-3 [6]) | relative viability EC50 (U2OS [7]) | relative viability EC50 (Caco-2 [8]) | relative viability EC50 (HepG2 [9]) | relative viability EC50 (Vero E6 [10]) | cell viability (Calu-3 [11]; 1 nM) | cell viability (Calu-3 [11]; 10 nM) | cell viability (Calu-3 [11]; 100 nM) | cell viability (Calu-3 [11]; 1000 nM) | cell viability (Calu-3 [11]; 10000 nM) | cell viability (U2OS [12]; 1 nM) | cell viability (U2OS [12]; 10 nM) | cell viability (U2OS [12]; 100 nM) | cell viability (U2OS [12]; 1000 nM) | cell viability (U2OS [12]; 10000 nM) | cell viability (Caco-2 [13]; 1 nM) | cell viability (Caco-2 [13]; 10 nM) | cell viability (Caco-2 [13]; 100 nM) | cell viability (Caco-2 [13]; 1000 nM) | cell viability (Caco-2 [13]; 10000 nM) | cell viability (HepG2 [14]; 1 nM) | cell viability (HepG2 [14]; 10 nM) | cell viability (HepG2 [14]; 100 nM) | cell viability (HepG2 [14]; 1000 nM) | cell viability (HepG2 [14]; 10000 nM) | cell viability (Vero E6 [15]; 1 nM) | cell viability (Vero E6 [15]; 10 nM) | cell viability (Vero E6 [15]; 100 nM) | cell viability (Vero E6 [15]; 1000 nM) | cell viability (Vero E6 [15]; 10000 nM)
1 | CCCC[N+]1(C)[C@@H]2C[C@@H](OC(=O)[C@H](CO)c3ccccc3)C[C@H]1[C@@H]1O[C@@H]12 (stereo not given in full) [butylscopolamine-bromide] | 0 | 0 | 0 | 0 | 0 | > 10 µM | > 10 µM | > 10 µM | > 10 µM | > 10 µM | 110% | 83.9% | 99.5% | 90.9% | 106% | 99.1% | 94.7% | 101% | 96.3% | 99.7% | 92.8% | 98.3% | 104% | 94.7% | 98.2% | 102% | 106% | 92.9% | 102% | 115% | 97.4% | 95.9% | 96.5% | 95.6% | 108%
2 | N=C(NCc1ccc(Cl)cc1)SCCCc1c[nH]cn1 [clobenpropit] | 0.3 | 0 | 0 | 0.2 | 0 | > 10 µM | > 10 µM | > 10 µM | > 10 µM | > 10 µM | 108% | 100% | 103% | 101% | 82.4% | 110% | 104% | 99.5% | 98.3% | 99.6% | 97.5% | 96.2% | 101% | 93.5% | 104% | 94.2% | 106% | 105% | 102% | 84% | 101% | 100% | 97.4% | 93.3% | 97.5%
3 | C=CC(=O)Nc1cccc(Nc2nc(Nc3ccc(OCCOC)cc3)ncc2F)c1 [AVL-292] | 4.4 | 6.4 | 7.6 | 6.8 | 7.7 | 2.87 µM | 2.39 µM | 1.47 µM | 1.47 µM | 1.74 µM | 100% | 106% | 92.2% | 97.2% | 27.2% | 100% | 100% | 94.9% | 91.5% | 9% | 85.2% | 90.8% | 102% | 78.3% | 21.5% | 101% | 95.7% | 101% | 80.5% | 29.7% | 96.9% | 94.5% | 94.9% | 82.5% | 11.9%
